Measurements taken from PMC5426667, “Action of tyrosinase on alpha and beta-arbutin: A kinetic study” (PLoS ONE, 2017).

Tests used:
[1] = deprotonated form is the nucleophile; no reference given; cited from earlier work
Mushroom tyrosinase [2] = target: T1, Mushroom tyrosinase (Agaricus bisporus, UniProt C7FF04); assay: Apparent inhibition of the diphenolase activity of tyrosinase (L-dopa as substrate, dopachrome at 475 nm); assay type: biochemical; set-up: purchased Sigma (Madrid, Spain); settings: for type of inhibition of the diphenolase activity: Lineweaver-Burk, 3 mM arbutin; for degree of inhibition of the diphenolase activity (maximum reached): [E]0 = 30 nM, [L-dopa]0 = 0.5 mM, arbutin up to 30 mM
Protocol: (§1) Mushroom tyrosinase (3130 U/mg) was obtained from Sigma (Madrid, Spain) and purified as previously described. Bradford’s method was used to determine the protein content using bovine serum albumin as standard.
(§2) Spectrophotometric assays were carried out with a PerkinElmer Lambda-35 spectrophotometer, online interfaced with a compatible PC 486DX microcomputer controlled by UV-Winlab software, where the kinetic data were recorded, stored, and analyzed.
(§3) The diphenolase activity of tyrosinase on L-dopa and the monophenolase activity on L-tyrosine were measured at 475 nm, the maximum absorption wavelength of dopachrome. To measure the activity of tyrosinase on L-tyrosine, the quantity of o-diphenol necessary to reach the steady state at time t = 0 was added. In this way, the characteristic lag period of the monophenolase activity, which complicates the measurement of the V0, was eliminated. This quantity is given by the equation R = [D]ss / [M]ss, where [D]ss and [M]ss are the concentrations of o-diphenol and monophenol respectively in the steady state with [M]ss ≈ [M]0. All the assays were carried out with R = 0.042.
All of the assays were carried out at 25°C, using 30 mM phosphate buffer at pH 7.0. Three repetitions of each experiment were made.
The degrees of inhibition (i) were calculated using tyrosinase, L-dopa, L-tyrosine and the following formula: i (%) = [(V0-Vi)/V0] x 100, where V0 is the initial rate of the control and Vi the initial rate in the presence of the target molecule. The initial rates were obtained by linear regression fitting of the initial portions of each experimental recording.

Mushroom tyrosinase [3] = target: T1, Mushroom tyrosinase; assay: Apparent inhibition of the monophenolase activity of tyrosinase (L-tyrosine as substrate, dopachrome at 475 nm); assay type: biochemical; settings: Lineweaver-Burk, 3 mM arbutin
Protocol: as §1, §2
as §3, with “0.042. […]” for “0.042.”
The degrees of inhibition (i) were calculated using tyrosinase, L-dopa, L-tyrosine and the following formula: i (%) = [(V0-Vi)/V0] x 100, where V0 is the initial rate of the control and Vi the initial rate in the presence of the target molecule. […]

Mushroom tyrosinase [4] = target: T1, Mushroom tyrosinase; assay: Kinetic characterization of arbutins as substrates of tyrosinase in the presence of MBTH; assay type: biochemical; settings: [E]0 = 100 nM, [MBTH]0 = 0.2 mM, DMF 2%, pH 7.0, 25°C; for Km: read-out: KM (Michaelis constant) as substrate of tyrosinase
Protocol: This adduct is oxidized by another molecule of o-quinone, leading to the accumulation of o-diphenol in the medium, so, the system reach the steady state. This assay method is highly sensitive, reliable, and precise. […] The sequence of reactions is described in S1B Fig. All of the assays were carried out at 25°C, using 30 mM phosphate buffer at pH 7.0. Three repetitions of each experiment were made. Initial rate values (V0) were calculated at different substrate concentrations. The assays were carried out in saturating conditions of O2 [47-49]. The data for V0 vs. [arbutin]0 were represented and fitted to the Michaelis-Menten equation using the Sigma Plot 9.0 program for Windows, providing the maximum rate (Vmax) and the Michaelis constant (KM). […] These compounds were solubilised by adding 2% (v/v) DMF to the reaction medium. […] KM and kcat values were obtained fitting by non-linear regression (Table 2) the initial rate values vs. the concentration of substrate to the Eq 1 (Fig 7 and 7 Inset).

T1 sequence (C7FF04 1-392): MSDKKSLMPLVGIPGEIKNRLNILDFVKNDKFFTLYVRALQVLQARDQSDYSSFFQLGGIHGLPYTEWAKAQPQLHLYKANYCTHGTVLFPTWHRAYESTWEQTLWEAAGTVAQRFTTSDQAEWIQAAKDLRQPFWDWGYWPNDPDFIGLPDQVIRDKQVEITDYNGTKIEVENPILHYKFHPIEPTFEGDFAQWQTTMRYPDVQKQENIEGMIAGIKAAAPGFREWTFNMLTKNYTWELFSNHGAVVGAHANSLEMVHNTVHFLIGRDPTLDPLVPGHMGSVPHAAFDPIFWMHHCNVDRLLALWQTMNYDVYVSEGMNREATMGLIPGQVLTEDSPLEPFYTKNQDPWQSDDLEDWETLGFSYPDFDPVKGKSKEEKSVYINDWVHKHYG

Structure (SMILES) | pKa [1] | type of inhibition of the diphenolase activity (Mushroom tyrosinase [2]) | degree of inhibition of the diphenolase activity (maximum reached) (Mushroom tyrosinase [2]) [%] | type of inhibition of the monophenolase activity (Mushroom tyrosinase [3]) | kcat (catalytic constant) as substrate of tyrosinase (Mushroom tyrosinase [4]) [s⁻¹] | Km (Mushroom tyrosinase [4]) [mM]
Cl.Cn1c(=NN)sc2ccccc21.O [MBTH, 3-methyl-2-benzothiazolinone hydrazone hydrochloride hydrate] | 5.8 ± 0.4 | – | – | – | – | –
OC[C@H]1O[C@H](Oc2ccc(O)cc2)[C@H](O)[C@@H](O)[C@@H]1O [α-Arbutin, (2R,3S,4S,5R,6R)-2-(hydroxymethyl)-6-(4-hydroxyphenoxy)oxane-3,4,5-triol] | – | apparent competitive inhibition | < 100 | apparent competitive inhibition | 4.43 ± 0.33 | 6.5 ± 0.58
OC[C@H]1O[C@@H](Oc2ccc(O)cc2)[C@H](O)[C@@H](O)[C@@H]1O [β-Arbutin, (2R,3S,4S,5R,6S)-2-(hydroxymethyl)-6-(4-hydroxyphenoxy)oxane-3,4,5-triol] | – | apparent competitive inhibition | < 100 | apparent competitive inhibition | 3.77 ± 0.29 | 3 ± 0.19
